This note sets out measurements from patent US5919635A (ZymoGenetics, Inc., priority 1995, dated 1999).

For test [1], the system named is CRE-luciferase (KZ6) in BHK570 cells. Nature of the test: Luciferase assay response to forskolin of KZ6-transfected BHK570 clone BHK/KZ6-19-46. The class given is cell-based. Here is the method:
Plasmid KZ6 was transfected into BHK570 cells (deposited with the American Type Culture Collection under Accession No. 10314) using the calcium phosphate precipitation method essentially as described by Graham and Van der Eb (Virology 52:456, 1973, which is incorporated by reference herein in its entirety). The transfected cells were grown in growth medium (Dulbecco's modified Eagle's medium (DMEM) containing 10% fetal calf serum, 1× PSN antibiotic mix (GIBCO-BRL), and 2.0 mM L-glutamine). After a few days in non-selective growth medium, the growth medium was replaced with G418 selection medium (growth medium containing 500 μg/ml of G418). The cells were then allowed to grow to confluency after which they are trypsinized and plated at limiting dilution into the wells of 96-well plates. The cells were grown for one to two weeks in G418 selection media. Clones from wells containing single colonies were assayed for the ability to respond to forskolin in the luciferase assay described below. Forskolin elevates the cellular cAMP level and thus the associated cAMP-dependent biological response pathways in a receptor-independent manner.
(§1) Following induction, the medium was removed, and the wells were washed once with 200 μl/well PBS. […] The fold induction of luciferase for each agonist was calculated as follows: [formula]

Test [2] concerns isolated human islets. Nature of the test: Insulin secretory function of isolated human pancreatic islets after perfusion. The test is classed as cell-based. As for the experimental part:
Islet cells were isolated from human pancreata obtained from organ transplant donors for whom a matched recipient was not available. After in situ perfusion with cold UW solution (Du Pont, Boston, Mass.), each pancreas was carefully excised, the pancreatic duct cannulated, and 4 mg/ml collagenase solution (Type V, Sigma, St. Louis, Mo.) infused at a constant rate, first at 4° C. and then 39° C. The gland was teased apart, and liberated fragments were washed by centrifugation, triturated through needles of decreasing caliber, and purified by discontinuous Ficoll density centrifugation (Warnock, Diabetes 35(Suppl. 1):136-139, 1989). Material harvested from the upper interfaces was pooled and counted after a determination of islet purity by dithiazone staining. Islets used in library construction were greater than 65% pure, while islets used in Northern blots were greater than 40% pure. The average islet diameter was 175 μm.

Test [3] addresses T1, cloned receptor (rat glucagon receptor, pLJ4) (Rattus norvegicus, UniProt P30082).
T1 construct: pLJ4 contained an approximately 2 kb insert encoding a 485 amino acid protein; expressed in transfected cells; host or cells: BHK570
Nature of the test: Competition binding / Scatchard analysis with ^125 I-glucagon on membranes of pLJ4 BHK transfectants. The settings on record: micromolar amounts (Table 7: 1 μM glucagon and des-His^1 [Glu^9]glucagon amide). Here is the method:
Membranes from the pLJ4 BHK transfectants were compared with rat liver membrane preparations for the ability to bind ^125 I-glucagon. Membranes were prepared essentially described by Rodbell et al. (J. Biol Chem. 246:1861-1871, 1971, which is incorporated by reference herein in its entirety). Two batches of liver membranes were each prepared from approximately 80 gm of liver from 12 to 16 decapitated young female rats. The livers were removed quickly and placed into an iced beaker. The livers were separated into ten-gram portions. The portions were minced with scissors, and connective tissue was removed during the mincing procedure. The portions were separately homogenized in a Dounce homogenizer. To each portion, 25 ml of Medium (Table 2) was added to the minced tissue in the homogenizer, and the tissue was homogenized in an ice bucket with eight vigorous strokes of the loose pestle. After homogenization, the homogenates were pooled into 450 ml of cold Medium (Table 2). The pooled homogenates were stirred for 3 minutes and filtered through two layers of cheesecloth followed by filtering through four layers of cheesecloth. The homogenates were then centrifuged for 30 minutes at 1500×g at 4° C. The supernatants were discarded, and the pellets were pooled into a clean Dounce homogenizer. The pellets were resuspended with three gentle strokes of the loose pestle. The resuspended pellets were decanted into a 250 ml graduate containing 62 ml of 69% Sucrose Solution (Table 2). Distilled water was added to a final volume of 110 ml, and the mixture was thoroughly mixed and kept cold. The concentration of the solution was adjusted to 44.0%+/-0.1% using 69% sucrose or water as measured by a refractometer (Bausch & Lomb, Rochester, N.Y.). […]
To each tube 100 μl of 2× binding buffer; 20 μl of ^125 I-glucagon (Amersham); 20 μl of 1 mM NaHCO3; 20 μl 10 mM HOAc, 0.5% BSA (Novo Nordisk N/A, Bagsvaerd, Denmark); and 40 μl of distilled water were added. […] The supernatants from each sample were aspirated, and the pellets were counted. […]

Test [4] concerns the target Rat Glucagon Receptor (pLJ4) in COS-7 cells (Rattus norvegicus, UniProt P30082). Briefly: cAMP accumulation (Amersham SPA kit) in COS-7 cells transfected with pLJ4. The class given is cell-based. Conditions: 100 nM to 1000 nM; pLJ4 transfectants.
For test [5], the target named is T2, rat glucagon receptor (Rattus norvegicus, UniProt P30082).
T2 construct: pLJ4 contained an approximately 2 kb insert encoding a 485 amino acid protein; expressed in transfected cells; host or cells: BHK/KZ6-19-46 (BHK570 with CRE-luciferase plasmid KZ6), clone KZ6/rGR-DHFR-2
T2 sequence (P30082 27-485): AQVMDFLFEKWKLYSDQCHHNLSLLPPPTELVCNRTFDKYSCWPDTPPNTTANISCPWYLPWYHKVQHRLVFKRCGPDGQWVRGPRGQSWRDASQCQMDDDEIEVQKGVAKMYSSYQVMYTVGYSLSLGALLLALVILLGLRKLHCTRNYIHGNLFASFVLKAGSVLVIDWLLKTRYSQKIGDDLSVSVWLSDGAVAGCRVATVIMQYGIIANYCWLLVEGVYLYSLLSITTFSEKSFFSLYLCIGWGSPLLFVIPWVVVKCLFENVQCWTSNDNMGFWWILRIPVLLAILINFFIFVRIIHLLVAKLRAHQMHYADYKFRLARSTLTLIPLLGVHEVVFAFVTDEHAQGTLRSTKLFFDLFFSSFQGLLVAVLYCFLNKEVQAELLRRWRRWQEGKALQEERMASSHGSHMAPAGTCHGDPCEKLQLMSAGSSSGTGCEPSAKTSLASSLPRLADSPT
Briefly: CRE-luciferase induction in pLJ4 transfectant clone KZ6/rGR-DHFR-2. The test is classed as cell-based. The settings on record: listed 200 nM GLP, 20 nM VIP, 100 nM CT, 4 hours at 37° C. As for the experimental part:
D. Luciferase and Adenylate Cyclase Activity Assays on Whole Cells
BHK/KZ6-19-46 cells were co-transfected with pLJ4 and pLJ1 or with pZCEP and pLJ1 (pZCEP transfectants were used as negative controls) as described above using calcium phosphate-mediated transfection. Transfectants were selected in 250 nM methotrexate as described previously.
Transfectants were assayed in triplicate for the induction of the CRE-luciferase response by selected agonists. Six random pLJ4 transfectants were assayed, and random pZCEP transfectants were assayed (negative controls). Microtiter assay plates were set up such that each well contained 2×10^4 cells in 100 μl of selection medium, and the cells were grown overnight. The agonists were prepared in selection medium, at the 2× final assay concentration listed:
Induction was initiated by the addition of 100 μl for each 2× solution in triplicate sample wells. Uninduced levels were determined in triplicate wells to which 100 μl of DMEM containing 10% fetal calf serum was added. The plates were incubated for four hours at 37° C., 5% CO2 to allow induction of luciferase production.
as §1

Test [6] concerns the target Human Glucagon Receptor (pLJ6') (Homo sapiens, UniProt P47871). Nature of the test: cAMP accumulation in pLJ6'-transfected cells. The class given is cell-based. Here is the method: The related peptides secretin, VIP, PTH, GLP and calcitonin were each added to transfectants at concentrations of 100 nM to 1000 nM and assayed for their ability to induce cAMP levels.
Transfected cells were selected in the presence of G418 until single colonies were visible. Single colonies were cloned using cloning cylinders.
The PLJ6'-transfected cells were assayed for cAMP accumulation essentially as described in Example 8.C.

No end group written: not given here.

Rat Glucagon Receptor (pLJ4) in COS-7 cells, sequence (P30082 27-485): as above
Human Glucagon Receptor (pLJ6'), sequence (P47871 26-477): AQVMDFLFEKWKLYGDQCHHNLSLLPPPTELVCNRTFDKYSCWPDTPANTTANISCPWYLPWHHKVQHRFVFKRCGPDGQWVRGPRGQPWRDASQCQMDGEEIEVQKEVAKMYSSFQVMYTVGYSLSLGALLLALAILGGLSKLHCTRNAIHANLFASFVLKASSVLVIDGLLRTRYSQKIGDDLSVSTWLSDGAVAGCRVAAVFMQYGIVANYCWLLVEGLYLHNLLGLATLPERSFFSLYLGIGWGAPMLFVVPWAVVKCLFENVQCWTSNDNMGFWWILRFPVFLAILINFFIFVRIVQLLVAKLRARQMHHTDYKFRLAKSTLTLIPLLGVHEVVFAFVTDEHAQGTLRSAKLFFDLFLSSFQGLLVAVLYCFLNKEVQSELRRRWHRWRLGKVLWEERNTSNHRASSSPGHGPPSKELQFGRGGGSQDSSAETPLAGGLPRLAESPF
T1 sequence (P30082 27-485): as the sequence (P30082 27-485) above

On to `C=C[C@@]1(C)CC(=O)[C@]2(O)[C@@]3(C)[C@@H](O)CCC(C)(C)[C@@H]3[C@H](O)[C@H](OC(C)=O)[C@@]2(C)O1` [forskolin], for which the “ability to respond to forskolin in the luciferase assay” value in test [1] was “capable of responding to forskolin”.

Consider `CC(C)Cn1c(=O)n(C)c(=O)c2[nH]cnc21` [isobutylmethylxanthine (IBMX), isobutylmethylxanthine], for which the “insulin secretory function (in words)” value in test [2] was “both first and second phase insulin secretory function”.

As to des-His^1 [Glu^9 ]glucagon amide, in test [3], the “ability to compete for ^125 I-glucagon binding” value is “able to compete”.

As to calcitonin, the “ability to induce cAMP levels” value in test [4] is “none of the related peptides were capable of inducing significant increases in cAMP levels”. In addition, the “induction of luciferase (in words)” value in test [5] is recorded as “not induced”.

“secretin: porcine secretin (Sigma) (HSDGTFTSELSRLRDSARLQRLLQGLV; ends and bridges not checked; UniProt P63298 33-59, looked up)”: in test [4], the “ability to induce cAMP levels” value is listed as “none of the related peptides were capable of inducing significant increases in cAMP levels”. In test [6], the “cAMP accumulation (in words)” value was “no increased cAMP accumulation”.

On to `O=C[C@H](O)[C@@H](O)[C@H](O)[C@H](O)CO` [glucose], for which, in test [2], the “insulin secretory function (in words)” value is “both first and second phase insulin secretory function”.

B1: PTH: bovine parathyroid hormone (PTH) (Sigma) (peptide, UniProt P01268 32-115, looked up)
Parathyroid hormone: AVSEIQFMHNLGKHLSSMERVEWLRKKLQDVHNFVALGASIAYRDGSSQRPRKKEDNVLVESHQKSLGEADKADVDVLIKAKPQ
modifications: Parathyroid hormone
For B1, the “ability to induce cAMP levels” value in test [4] is “none of the related peptides were capable of inducing significant increases in cAMP levels”.
